Laboratory results from ChEMBL document CHEMBL4184141, “Investigating the Antibacterial Activity of Biphenylthiazoles against Methicillin- and Vancomycin-Resistant Staphylococcus aureus (MRSA and VRSA)” (J Med Chem, 2017).
Converted amounts (≈) assume the structure as drawn. The source made the active and inactive calls. The rule behind the calls is not given here.

What was measured:
Staphylococcus aureus [1] = assay: Antibacterial activity against methicillin-resistant Staphylococcus aureus 2658 RCMB up to 20 hrs by broth microdilution assay; format: functional
[2] = Intrinsic clearance in human liver microsomes in absence of NADPH by LC-MS/MS analysis; format: ADME, microsome; settings: read-out: CLH
[3] = Half life in human liver microsomes in absence of NADPH by LC-MS/MS analysis; format: ADME, microsome
[4] = Apparent permeability of the compound across basolateral side to apical side in human Caco2 cells by LC-MS/MS analysis; format: ADME, cell-based; settings: Caco-2
[5] = Efflux ratio of permeability from basolateral to apical side over apical to basolateral side of human Caco2 cells by LC-MS/MS analysis; format: ADME, cell-based; settings: Caco-2
Staphylococcus aureus [6] = assay: Antibacterial activity against Staphylococcus aureus RN4220 up to 20 hrs by broth microdilution assay; format: functional; settings: RN4220, 20 h
Staphylococcus aureus [7] = assay: Antibacterial activity against methicillin-resistant Staphylococcus aureus NRS119 up to 20 hrs by broth microdilution assay; format: functional; settings: NRS119, 20 h
Staphylococcus aureus [8] = assay: Antibacterial activity against methicillin-resistant Staphylococcus aureus USA400 NRS123 up to 20 hrs by broth microdilution assay; format: functional; settings: USA400 NRS123, 20 h
Staphylococcus aureus [9] = assay: Antibacterial activity against vancomycin-resistant Staphylococcus aureus VRS10 up to 20 hrs by broth microdilution assay; format: functional; settings: VRS10, 20 h
Staphylococcus aureus [10] = assay: Antibacterial activity against vancomycin-resistant Staphylococcus aureus VRS11a up to 20 hrs by broth microdilution assay; format: functional
Staphylococcus aureus [11] = assay: Antibacterial activity against vancomycin-resistant Staphylococcus aureus VRS12 up to 20 hrs by broth microdilution assay; format: functional; settings: VRS12, 20 h
Staphylococcus aureus [12] = assay: Bactericidal activity against Staphylococcus aureus RN4220 up to 18 hrs by broth microdilution assay; format: functional; settings: RN4220, 18 h, read-out: MBC99.9
Staphylococcus aureus [13] = assay: Bactericidal activity against methicillin-resistant Staphylococcus aureus NRS119 up to 18 hrs by broth microdilution assay; format: functional; settings: NRS119, 18 h, read-out: MBC99.9
Staphylococcus aureus [14] = assay: Bactericidal activity against methicillin-resistant Staphylococcus aureus USA400 NRS123 up to 18 hrs by broth microdilution assay; format: functional; settings: USA400 NRS123, 18 h, read-out: MBC99.9
Staphylococcus aureus [15] = assay: Bactericidal activity against vancomycin-resistant Staphylococcus aureus VRS10 up to 18 hrs by broth microdilution assay; format: functional; settings: VRS10, 18 h, read-out: MBC99.9
Staphylococcus aureus [16] = assay: Bactericidal activity against vancomycin-resistant Staphylococcus aureus VRS11a up to 18 hrs by broth microdilution assay; format: functional; settings: read-out: MBC99.9
Staphylococcus aureus [17] = assay: Bactericidal activity against vancomycin-resistant Staphylococcus aureus VRS12 up to 18 hrs by broth microdilution assay; format: functional; settings: VRS12, 18 h, read-out: MBC99.9
Enterococcus faecium = assay: Antibacterial activity against vancomycin-resistant Enterococcus faecium ATCC 700221 up to 20 hrs by broth microdilution assay; format: functional; settings: ATCC 700221, 20 h
Pseudomonas aeruginosa = assay: Antibacterial activity against Pseudomonas aeruginosa ATCC 15442 up to 20 hrs by broth microdilution assay; format: functional; settings: ATCC 15442, 20 h
Staphylococcus aureus [18] = assay: Antibacterial activity against methicillin-resistant Staphylococcus aureus USA300 at 4 times MIC after 12 hrs by time-kill assay; format: functional, organism-based
HRT-18 cell line [19] = assay: Cytotoxicity against human HRT18 cells up to 32 microg/ml after 6 hrs by MTS assay; format: cell-based; settings: hrt-18, 6 h
HRT-18 cell line [20] = assay: Cytotoxicity against human HRT18 cells at 64 microg/ml after 6 hrs by MTS assay; format: cell-based; settings: hrt-18, 6 h
Staphylococcus aureus [21] = assay: Bactericidal activity against methicillin-resistant Staphylococcus aureus USA300 assessed as time required to reduce bacterial load to 0 at 4 times MIC by time-kill assay; format: functional

Cc1nc(-c2ccc(-c3ccccc3)cc2)sc1-c1ccnc(-c2ccncc2)n1
MIC (Staphylococcus aureus [1]): > 25 µg/mL

Cc1nc(-c2ccc(-c3ccccc3)cc2)sc1-c1ccnc(N(C)C)n1
MIC (Staphylococcus aureus [1]): > 25 µg/mL

CCCCc1ccc(-c2nc(C)c(/C(C)=N/NC(=N)N)s2)cc1
microsomal CLint [2]: < 9.6 µL/min/mg | MIC (Staphylococcus aureus [1]): 4.7 to 4.8 µg/mL (≈ 14.3 to 14.6 µM) | half-life [3]: > 4 h | Papp B→A [4]: 1.2 ×10⁻⁶ cm/s | efflux ratio [5]: > 2

CCCNc1nccc(-c2sc(-c3ccc(-c4ccccc4)cc3)nc2C)n1
MIC (Staphylococcus aureus [1]): > 25 µg/mL

CNC(=N)Nc1nccc(-c2sc(-c3ccc(-c4ccccc4)cc3)nc2C)n1
MIC (Staphylococcus aureus [1]): 1.56 µg/mL (≈ 3.9 µM) | MIC (Staphylococcus aureus [6]): 8 µg/mL (≈ 20 µM) | MIC (Staphylococcus aureus [7]): 8 µg/mL (≈ 20 µM) | MIC (Staphylococcus aureus [8]): 16 µg/mL (≈ 39.9 µM) | MIC (Staphylococcus aureus [9]): 32 µg/mL (≈ 79.9 µM) | MIC (Staphylococcus aureus [10]): 32 µg/mL (≈ 79.9 µM) | MIC (Staphylococcus aureus [11]): 64 µg/mL (≈ 160 µM) | MBC (Staphylococcus aureus [12]): 32 µg/mL (≈ 79.9 µM) | MBC (Staphylococcus aureus [13]): 16 µg/mL (≈ 39.9 µM) | MBC (Staphylococcus aureus [14]): 16 µg/mL (≈ 39.9 µM) | MBC (Staphylococcus aureus [15]): 64 µg/mL (≈ 160 µM) | MBC (Staphylococcus aureus [16]): 64 µg/mL (≈ 160 µM) | MBC (Staphylococcus aureus [17]): 64 µg/mL (≈ 160 µM)

Cc1nc(-c2ccc(-c3ccccc3)cc2)sc1-c1ccnc(N2CCCC2)n1
MIC (Staphylococcus aureus [1]): > 25 µg/mL

Cc1nc(-c2ccc(-c3ccccc3)cc2)sc1-c1ccnc(N2CCOCC2)n1
MIC (Staphylococcus aureus [1]): 3.12 µg/mL (≈ 7.53 µM)

Cc1nc(-c2ccc(-c3ccccc3)cc2)sc1-c1ccnc(NC(=N)N2CCOCC2)n1
MIC (Staphylococcus aureus [1]): 0.78 µg/mL (≈ 1.71 µM) | MIC (Staphylococcus aureus [6]): 8 µg/mL (≈ 17.5 µM) | MIC (Staphylococcus aureus [7]): 8 µg/mL (≈ 17.5 µM) | MIC (Staphylococcus aureus [8]): 16 µg/mL (≈ 35 µM) | MIC (Staphylococcus aureus [9]): 32 µg/mL (≈ 70.1 µM) | MIC (Staphylococcus aureus [10]): 32 µg/mL (≈ 70.1 µM) | MIC (Staphylococcus aureus [11]): 64 µg/mL (≈ 140 µM) | MIC (Enterococcus faecium): 8 µg/mL (≈ 17.5 µM) | MIC (Pseudomonas aeruginosa): > 64 µg/mL | MBC (Staphylococcus aureus [12]): 32 µg/mL (≈ 70.1 µM) | MBC (Staphylococcus aureus [13]): 16 µg/mL (≈ 35 µM) | MBC (Staphylococcus aureus [14]): 16 µg/mL (≈ 35 µM) | MBC (Staphylococcus aureus [15]): 64 µg/mL (≈ 140 µM) | MBC (Staphylococcus aureus [16]): 64 µg/mL (≈ 140 µM) | MBC (Staphylococcus aureus [17]): 64 µg/mL (≈ 140 µM) | Activity (Staphylococcus aureus [18]): inactive | Activity (HRT-18 cell line [19]): Non-Toxic | Activity (HRT-18 cell line [20]): Toxic

CN[C@H](CC(C)C)C(=O)N[C@H]1C(=O)N[C@@H](CC(N)=O)C(=O)N[C@H]2C(=O)N[C@H]3C(=O)N[C@H](C(=O)N[C@H](C(=O)O)c4cc(O)cc(O)c4-c4cc3ccc4O)[C@H](O)c3ccc(c(Cl)c3)Oc3cc2cc(c3O[C@@H]2O[C@H](CO)[C@@H](O)[C@H](O)[C@H]2O[C@H]2C[C@](C)(N)[C@H](O)[C@H](C)O2)Oc2ccc(cc2Cl)[C@H]1O [VANCOMYCIN]
MIC (Staphylococcus aureus [1]): 1.56 µg/mL (≈ 1.08 µM) | MIC (Staphylococcus aureus [9]): 128 to 512 µg/mL (≈ 88.3 to 353 µM) | MIC (Staphylococcus aureus [10]): > 512 µg/mL | MIC (Staphylococcus aureus [11]): 16 µg/mL (≈ 11 µM) | MIC (Enterococcus faecium): > 64 µg/mL | MBC (Staphylococcus aureus [12]): 1 µg/mL (≈ 0.69 µM) | MBC (Staphylococcus aureus [13]): 1 µg/mL (≈ 0.69 µM) | MBC (Staphylococcus aureus [14]): 1 µg/mL (≈ 0.69 µM) | MBC (Staphylococcus aureus [15]): 512 µg/mL (≈ 353 µM) | MBC (Staphylococcus aureus [16]): > 512 µg/mL | MBC (Staphylococcus aureus [17]): 256 µg/mL (≈ 177 µM) | Time (Staphylococcus aureus [21]): 24 h

Cc1nc(-c2ccc(-c3ccccc3)cc2)sc1-c1ccnc(NC(=N)c2cccnc2)n1
MIC (Staphylococcus aureus [1]): > 25 µg/mL

Cc1nc(-c2ccc(-c3ccccc3)cc2)sc1-c1ccnc(-c2ccccn2)n1
MIC (Staphylococcus aureus [1]): > 25 µg/mL

CCCCc1ccc(-c2nc(C)c(-c3ccnc(N)n3)s2)cc1
MIC (Staphylococcus aureus [1]): 3.6 µg/mL (≈ 11.1 µM)

Cc1nc(-c2ccc(-c3ccccc3)cc2)sc1-c1ccnc(N)n1
MIC (Staphylococcus aureus [1]): 6.25 µg/mL (≈ 18.1 µM)

Cc1nc(-c2ccc(-c3ccccc3)cc2)sc1-c1ccnc(NC(=N)c2ccccn2)n1
MIC (Staphylococcus aureus [1]): > 25 µg/mL

Cc1nc(-c2ccc(-c3ccccc3)cc2)sc1-c1ccnc(NN)n1
MIC (Staphylococcus aureus [1]): 1.56 µg/mL (≈ 4.34 µM)

Cc1nc(-c2ccc(-c3ccccc3)cc2)sc1-c1ccnc(N=C(N(C)C)N(C)C)n1
MIC (Staphylococcus aureus [1]): > 25 µg/mL

Cc1nc(-c2ccc(-c3ccccc3)cc2)sc1-c1ccncn1
MIC (Staphylococcus aureus [1]): > 25 µg/mL

Cc1nc(-c2ccc(-c3ccccc3)cc2)sc1-c1ccnc(NC(=N)N2CCCC2)n1
MIC (Staphylococcus aureus [1]): 12.5 µg/mL (≈ 28.4 µM)

Cc1nc(-c2ccc(-c3ccccc3)cc2)sc1-c1ccnc(NC#N)n1
MIC (Staphylococcus aureus [1]): > 25 µg/mL
